Reference: paper PMC9243654 (Frontiers in Nutrition, 2022)
Like-named read-outs stand apart in the source and are kept apart here.

Assays:
[1] = ref PubChem database, cited from earlier work
in vitro = assay: in vitro
Experimental: The PAMPA-BBB assay was conducted according to the methodology followed by Di et al., with some modifications as described below ([15]). First, the BBB solution was prepared by dissolving 8 mg of PBL and 4 mg of cholesterol in 600 μl of n-dodecane. The initial donor solution was prepared by mixing 1 ml of extract (10 mg ml^−1 in EtOH) with 1 ml of buffer (PBS, pH = 7.4, 10 mM). The filter membrane of the donor plate was carefully coated with 5 μl of BBB solution. The acceptor plate was filled with 350 μl of buffer, and the donor plate was carefully assembled over the acceptor plate like a “sandwich.” Finally, the donor plate was filled with 350 μl of donor solution, covered, and incubated for 4 h at 37°C in the dark. After incubation time, 300 μl of the solution was taken from both plates, transferred to separate vials, and dried in the SpeedVac system at 40°C and 13 mbar pressure. Dried acceptor and donor solution were dissolved in 50 μl of pure EtOH before subjecting to UHPLC-Q-TOF-MS analysis. Permeability across in vitro BBB of the bioactive compound was measured according to Equation (1) ([25]), with some modifications in concentration rates.
(1) Pe=-ln[1-CA(t)/Ce]/A^*(1/VD+1/VA)^*t
Cequilibrium was calculated according to the following equation ([2]):
(2) Cequilibrium=[CD(t)*VD+CA(t)*VA]/(VD+VA)

[2] = compounds identified in LPLE extract
[3] = compounds of RSFE extract, octanol-water partition coefficient
[4] = PAMPA, pH 7.4, PAMPA-BBB log Pe (cm s−1), compound within RSFE extract, 4 h, 37°C, PBS pH 7.4
[5] = PAMPA, pH 7.4, PAMPA-BBB log Pe, compound within LPLE (Nothofagus pumilio, lenga PLE extract), N.D = not detected in acceptor
[6] = compound within LPLE (Nothofagus pumilio, lenga PLE extract), classes based on Könczöl et al.
[7] = PAMPA, pH 7.4, PAMPA-BBB log Pe (cm s−1), compound within T33 extract, 4 h, 37°C, PBS pH 7.4
[8] = PAMPA, pH 7.4, PAMPA-BBB log Pe (cm s−1)

Caffeoylshikimic acid
Log P ([1]; compounds of T33 extract): 0.9 | Cross BBB potential (in vitro; PAMPA): ++ | PAMPA-BBB log Pe (cm s−1) (in vitro; PAMPA, 4 h, pH 7.4): −5.46 cm s−1

Oc1ccc(/C=C/c2cc(O)cc(O)c2)cc1 [Trans-resveratrol]
Log P [1, 2]: 2.5 | Log P ([1]; compounds of ASFE extract): 2.5 | Cross BBB potential (in vitro; PAMPA): -

COc1ccc(-c2cc(=O)c3c(O)c(O)c(OC)cc3o2)cc1 [Ladanein]
Log P [1, 3]: 2.0 | Papp at 4 h (in vitro; [4]): 141 ×10⁻⁶ cm/s | Cross BBB potential (in vitro; compound within RSFE extract): +++ (log Pe > −4.5)

COc1cc(C=O)cc(OC)c1O [Syringaldehyde]
Log P [1, 2]: 0.1 | Log P ([1]; compounds of T33 extract): 1.1 | Papp (in vitro; [5]): 13.5 ×10⁻⁶ cm/s

C[C@@H]1O[C@@H](Oc2c(-c3ccc(O)cc3)oc3cc(O)cc(O)c3c2=O)[C@H](O)[C@H](O)[C@H]1O [Afzelin]
Cross BBB potential (in vitro; PAMPA): -

CC(=O)O[C@H]1CC[C@]2(CO)[C@H]3CC[C@]4(C)[C@@H](c5ccc(=O)oc5)CC[C@]4(O)[C@@H]3CC[C@]2(O)C1 [Hellebrigenol-3-monoacetate]
Log P ([1]; compounds of KD extract): 1.6 | Cross BBB potential (in vitro; compound within KD extract): ++ (log Pe > −5.5) | PAMPA-BBB log Pe (cm s−1) (in vitro; compound within KD extract, 4 h, 37°C, PBS pH 7.4): −4.70 cm s−1

Bersaldegenin-1,3,5-orthoacetate
Log P ([1]; compounds of KD extract): 4.87 | Cross BBB potential (in vitro; compound within KD extract): -

O=C(O[C@@H]1Cc2c(O)cc(O)cc2O[C@@H]1c1ccc(O)c(O)c1)c1cc(O)c(O)c(O)c1 [(-)-Epicatechin gallate]
Log P [1, 2]: 1.5 | Log P ([1]; compounds of ASFE extract): 1.5 | Cross BBB potential (in vitro; compound within ASFE extract): - | Cross BBB potential (in vitro; [6]): -

O=C(O)[C@]1(O)C[C@@H](O)[C@@H](O)[C@H](O)C1 [Quinic acid]
Log P ([1]; compounds of T33 extract): −2.4 | Cross BBB potential (in vitro; PAMPA): - | Papp at 4 h (in vitro; [4]): 6.03 ×10⁻⁶ cm/s | Papp at 4 h (in vitro; [7]): 3.63 ×10⁻⁶ cm/s

OC[C@H]1O[C@@H](Oc2cc(O)cc(/C=C/c3ccc(O)cc3)c2)[C@H](O)[C@@H](O)[C@@H]1O [Piceid]
Log P [1, 2]: 1.7 | Log P ([1]; compounds of ASFE extract): 1.7 | Cross BBB potential (in vitro; [6]): -

O=C(O)c1ccc(O)c(O)c1 [Protocatechuic acid]
Log P [1, 2]: 1.1 | Log P ([1]; compounds of ASFE extract): 1.1 | Log P ([1]; compounds of KD extract): 1.1 | Cross BBB potential (in vitro; PAMPA): +++ | PAMPA-BBB log Pe (cm s−1) (in vitro; PAMPA, 4 h, pH 7.4): −3.92 cm s−1 | Papp at 4 h (in vitro; [8]): 148 ×10⁻⁶ cm/s | Papp at 4 h (in vitro; PAMPA, pH 7.4, PAMPA-BBB log Pe (cm s−1), compound within KD extract, 4 h, 37°C, PBS pH 7.4): 105 ×10⁻⁶ cm/s | Papp at 4 h (in vitro; [5]): 138 ×10⁻⁶ cm/s

Kalandaigremoside B
Log P ([1]; compounds of KD extract): 7.2 | Cross BBB potential (in vitro; compound within KD extract): -

O=C1c2c(O)cc(O)cc2O[C@H](c2ccc(O)cc2)[C@H]1O [Aromadendrin]
Log P [1, 2]: 1.8 | Log P ([1]; compounds of ASFE extract): 1.8 | Cross BBB potential (in vitro; compound within ASFE extract): - | Cross BBB potential (in vitro; [6]): -

O=c1c(O[C@@H]2O[C@H](CO)[C@@H](O)[C@H](O)[C@H]2O)c(-c2ccc(O)c(O)c2)oc2cc(O)cc(O)c12 [Isoquercitrin]
Cross BBB potential (in vitro; PAMPA): -

O=C(/C=C/c1ccc(O)c(O)c1)O[C@@H]1C[C@](O)(C(=O)O)C[C@@H](O)[C@H]1O [Caffeoylquinic acid (chlorogenic acid), Caffeoylquinic acid]
Papp at 4 h (in vitro; [8]): 10.2 ×10⁻⁶ cm/s

Kalandaigremoside C
Log P ([1]; compounds of KD extract): 7.2 | Cross BBB potential (in vitro; compound within KD extract): -

O=C(O)/C=C/c1ccc(O)c(O)c1 [Caffeic acid]
Cross BBB potential (in vitro; PAMPA): -

CC(C)c1cc2c(c(O)c1O)[C@@]13CCCC(C)(C)[C@@H]1C[C@@H]2OC3=O [Carnosol]
Log P [1, 3]: 4.4 | Papp at 4 h (in vitro; [4]): 50.1 ×10⁻⁶ cm/s | Cross BBB potential (in vitro; compound within RSFE extract): +++ (log Pe > −4.5)

CC(C)c1cc2c(cc1O)[C@@]1(C)CCCC(C)(C)[C@@H]1CC2=O [Sugiol]
Log P [1, 3]: 5.6 | Cross BBB potential (in vitro; PAMPA): ++ | Papp at 4 h (in vitro; [8]): 4.57 ×10⁻⁶ cm/s

CCOC(=O)/C=C/c1ccc(O)c(O)c1 [Ethyl caffeate]
Papp at 4 h (in vitro; [7]): 18.6 ×10⁻⁶ cm/s | Cross BBB potential (in vitro; compound within T33 extract): ++ (log Pe > −5.5)

O=c1c(O)c(-c2cc(O)c(O)c(O)c2)oc2cc(O)cc(O)c12 [Myricetin]
Cross BBB potential (in vitro; PAMPA): -

COc1ccc(-c2cc(=O)c3c(O)cc(O)cc3o2)cc1O [Diosmetin]
Cross BBB potential (in vitro; PAMPA): ++ (key: -: not detected in acceptor; +: log Pe > −6.5; ++: log Pe > −5.5; +++: log Pe > −4.5) | Papp (in vitro; [8]): 31.6 ×10⁻⁶ cm/s

COc1cc(/C=C/C(=O)O)ccc1O [Ferulic acid]
Cross BBB potential (in vitro; PAMPA): ++ (key: -: not detected in acceptor; +: log Pe > −6.5; ++: log Pe > −5.5; +++: log Pe > −4.5) | PAMPA-BBB log Pe (cm s−1) (in vitro; PAMPA, pH 7.4): −4.68 cm s−1 | Cross BBB potential (in vitro; compound within ASFE extract): -

O=c1oc2c(O)c(O)cc3c(=O)oc4c(O)c(O)cc1c4c23 [Ellagic acid]
Cross BBB potential (in vitro; PAMPA): -

COc1cc2ccc(=O)oc2cc1O [Scopoletin]
Papp at 4 h (in vitro; [8]): 75.9 ×10⁻⁶ cm/s | Papp at 4 h (in vitro; [5]): 28.2 ×10⁻⁶ cm/s

COc1cc(C(=O)O)ccc1O[C@@H]1O[C@H](CO)[C@@H](O)[C@H](O)[C@H]1O [Vanillic acid-O-hexoside]
Cross BBB potential (in vitro; compound within RSFE extract): +++ (log Pe > −4.5) | PAMPA-BBB log Pe (cm s−1) (in vitro; compound within RSFE extract, 4 h, 37°C, PBS pH 7.4): −4.19 cm s−1

O=C1C[C@@H](c2ccc(O)c(O)c2)Oc2cc(O)cc(O)c21 [Eriodictyol]
Log P [1, 3]: 2.0

COc1cc(O)c2c(=O)cc(-c3ccc(O)cc3)oc2c1 [Genkwanin]
Papp at 4 h (in vitro; [8]): 9.55 ×10⁻⁶ cm/s

O=c1ccc2ccc(O)cc2o1 [Umbelliferone]
Papp at 4 h (in vitro; PAMPA, pH 7.4): 38 ×10⁻⁶ cm/s | Cross BBB potential (in vitro; compound within RSFE extract): +++ (log Pe > −4.5)

O=c1cc(-c2ccc(O)c(O)c2)oc2cc(O)cc(O)c12 [Luteolin]
Papp at 4 h (in vitro; [8]): 38 ×10⁻⁶ cm/s

C[C@H]1[C@H](C)CC[C@]2(C(=O)O)CC[C@]3(C)C(=CC[C@@H]4[C@@]5(C)C[C@@H](O)[C@H](O)[C@@](C)(CO)[C@@H]5CC[C@]43C)[C@H]12 [Asiatic acid]
Cross BBB potential (in vitro; PAMPA): +++ | Papp at 4 h (in vitro; [8]): 64.6 ×10⁻⁶ cm/s

O=C(O)c1cc(O)c(O)c(O)c1 [Gallic acid]
Papp at 4 h (in vitro; [5]): 69.2 ×10⁻⁶ cm/s

C[C@@H]1O[C@@H](OC[C@H]2O[C@@H](Oc3c(-c4ccc(O)c(O)c4)oc4cc(O)cc(O)c4c3=O)[C@H](O)[C@@H](O)[C@@H]2O)[C@H](O)[C@H](O)[C@H]1O [Rutin]
Cross BBB potential (in vitro; PAMPA): -

COc1cc(C=O)ccc1O [Vanillin]
Papp at 4 h (in vitro; [8]): 70.8 ×10⁻⁶ cm/s | Papp at 4 h (in vitro; [5]): 33.1 ×10⁻⁶ cm/s

Oc1cc(O)c2c(c1)O[C@H](c1ccc(O)c(O)c1)[C@H](O)[C@H]2c1c(O)cc(O)c2c1O[C@H](c1ccc(O)c(O)c1)[C@H](O)C2 [Procyanidin B2]
Cross BBB potential (in vitro; PAMPA): -

CC(C)c1cc2c(c(O)c1O)[C@@]1(C(=O)O)CCCC(C)(C)[C@@H]1CC2 [Carnosic acid]
Cross BBB potential (in vitro; PAMPA): ++ (key: -: not detected in acceptor; +: log Pe > −6.5; ++: log Pe > −5.5; +++: log Pe > −4.5) | Papp (in vitro; [8]): 13.5 ×10⁻⁶ cm/s

O=C(/C=C/c1ccc(O)c(O)c1)O[C@H](Cc1ccc(O)c(O)c1)C(=O)O [Rosmarinic acid]
Log P [1, 3]: 2.4 | Log P ([1]; compounds of T33 extract): 2.4
